Assay results from PMC10992699, “Comparative structure activity and target exploration of 1,2-diphenylethynes in Haemonchus contortus and Caenorhabditis elegans” (International Journal for Parasitology: Drugs and Drug …, 2024).
Where two headings read alike, the source gives them in different places.

Key:
H. contortus xL3s = assay: H. contortus xL3 motility dose-response assay; assay type: cell-based, Haemonchus contortus; settings: for IC50: read-out: Worm motility IC50 ± SD, H. contortus xL3s; for fold increased activity compared to UMW-9729, H. contortus larvae: ratio of xL3 motility IC50 to parent UMW-9729
Procedure: Immediately prior to use in assays, H. contortus L3s were exsheathed via exposure to 0.15 % (v/v) sodium hypochlorite for 20 min at 38 °C ([Preston et al., 2015]), achieving an exsheathment rate of 90 %. The larvae were then immediately washed five times with 50 mL of sterile physiological saline (pH 7.0) by centrifugation at 2000×g (5 min) and resuspended (at a concentration of 300 xL3s per 50 μL) in sterile (autoclaved) lysogeny broth (LB; cf. [Bertani, 1951]; [Taki et al., 2021b]), supplemented with final concentrations of 100 IU/mL of penicillin, 100 μg/mL of streptomycin and 0.25 μg/mL of amphotericin B (Fungizone®, cat. No. 15240-062, Gibco, Thermo Fisher Scientific, Waltham, MA, USA); this supplemented LB was designated LB*.
The dose-response assay for H. contortus followed a well-established protocol ([Taki et al., 2021b]); it was employed to evaluate the potency of hit compounds against this nematode. Test compounds were assessed individually for an effect on the motility of xL3s (10-point, 2-fold serial dilution in LB*, 40 μM–[…]). […] A solution of LB* was used as a negative control. The test compounds and positive control compounds (monepantel and moxidectin) were arrayed in triplicate across individual flat-bottom 96-well microplates, with six wells on each plate containing the negative control. Added to each well were 300 xL3s of H. contortus in 50 μL of LB* to give a final volume of 100 μL. Plates were then placed in a CO2 incubator (10 % (v/v) CO2, 38 °C, >90 % humidity; Forma, model no. 311, Thermo Fisher Scientific, USA). […] Over a period of 15 min, disturbance of an infrared beam in individual wells was recorded as an ‘activity count’. Raw ‘activity counts’ for individual wells were normalised to the negative-controls. The compound concentrations were log10-transformed and fitted using a variable slope four-parameter equation, using the ordinary least squares fit model, employing Prism (v.9.1.0 GraphPad Software, San Diego, CA, USA). Larval development was established at 168 h of incubation with compound, as described previously ([Preston et al., 2015]). The phenotypes of larvae were examined using a microscope ([Preston et al., 2015]) and recorded.

C. elegans young adults = assay: C. elegans young adult motility dose-response assay; assay type: cell-based, Caenorhabditis elegans; settings: for IC50: read-out: Worm motility IC50 ± SD, C. elegans young adults
Procedure: The eggs were then washed five times with 15 mL of sterile M9 buffer (centrifugation at 500×g, 2 min). […] were collected from plates and washed twice with sterile M9 buffer by centrifugation (500×g, 2 min) to remove E. coli OP50, and then resuspended to a concentration of 100 larvae per 50 μL in sterile (autoclaved) LB*. The dose-response assay for C. elegans followed a well-established protocol ([Taki et al., 2021a]) and was employed to evaluate the potency of hit compounds against this nematode. […] Two compounds, monepantel (ZolvixTM; Elanco, Australia) and moxidectin ([…], France) were used as positive controls and prepared in the same manner as the test compounds. […] The test compounds and positive control compounds were arrayed in triplicate across individual flat-bottom 96-well microplates (cat. no. 3596; Corning, Corning, NY, USA), with six wells on each plate containing the negative control. Added to each well were 100 C. elegans in 50 μL of LB* to give a final volume of 100 μL. Plates were then placed in an incubator ([…], model no. IMP180, Thermo Fisher Scientific, USA) at 20 °C for 40 h. […] Over 15 min, disturbance of an infrared beam in individual wells was recorded as an 'activity count'. Raw 'activity counts' for each well were normalised to the negative controls. The compound concentrations were log10-transformed and fitted using a variable slope four-parameter equation, using the ordinary least squares fit model, employing the program Prism (v.9.1.0 GraphPad Software, San Diego, CA, USA).

[1] = system: adult females of Haemonchus contortus; assay: Motility of adult female H. contortus in vitro; assay type: cell-based; settings: 40 μM
Procedure: Adult H. contortus were collected from the abomasa of sheep infected for 10 weeks, washed extensively with phosphate-buffered saline (PBS, pH 7.4) and subsequently in RPMI 1640 media supplemented with final concentrations of 2 mM L-glutamine, 100 IU/mL of penicillin, 100 μg/mL of streptomycin and 0.25 μg/mL of amphotericin B (Thermo Fisher Scientific, Scoresby, VIC, Australia; this supplemented RPMI was designated RPMI*). Female and male worms were collected and separated immediately prior to compound testing.
The activity of UMW-9729 and six derivatives (12, 14, 15, 16, 18 and 25) was assessed on adult female specimens of H. contortus in an established assay ([Taki et al., 2020]). The compound was added in triplicate to the wells of a 24-well plate (cat. no. 3524; Corning, USA) at a concentration of 40 μM in 500 μL of RPMI* (RPMI supplemented with final concentrations of 2 mM L-glutamine, 100 IU/mL of penicillin, 100 μg/mL of streptomycin and 0.25 μg/mL of amphotericin B; Thermo Fisher Scientific, Scoresby, VIC, Australia). Two positive-control compounds, monepantel and moxidectin, and a negative control containing 1 % (v/v) DMSO only, were included in triplicates on the same plate. Three adult females were added to each of the triplicate wells containing either the test compound or the controls and placed in a CO2 incubator (10 % (v/v) CO2, 40 °C, >90 % relative humidity) for 1 day. A video recording (30 s) of each well was taken at 3 h, 6 h, 12 h and 24 h during the total incubation period to assess the reduction in worm motility, which was scored as 3 (“good”), 2 (“low”), 1 (“very low”) or 0 (“no movement”; cf. [Taki et al., 2020]). For each test or control compound, the motility scores for each of the triplicate wells were calculated, normalised with reference to the negative control (100 % motility) and recorded as a percentage.

[2] = Haemonchus contortus, 90 h, xL3s, 90 h incubation (table title), three independent assays in triplicate
[3] = Caenorhabditis elegans, 40 h, young adults, 40 h incubation, three independent assays in triplicate
[4] = young adults, 40 h incubation, three independent assays in triplicate
[5] = xL3s, 90 h incubation (table title), three independent assays in triplicate
[6] = 24 h of incubation, normalised to negative control

| Compound | IC50 (H. contortus xL3s; [2]) | IC50 (C. elegans young adults; [3]) | other results |
| --- | --- | --- | --- |
| Cc1cccc(C#Cc2ccc(-c3ccn[nH]3)cc2)c1 [Compound 11] | 13 ± 5.7 µM | > 40 µM | Worm motility IC50 ± SD, C. elegans young adults (C. elegans young adults; [4]): lost activity |
| C[C@](C#N)(COc1cc(C#N)ccc1C(F)(F)F)NC(=O)c1ccc(SC(F)(F)F)cc1 [Monepantel, monepantel, reference compound] | 0.6 ± 0.2 µM | 0.03 ± 0.01 µM | – |
| Clc1cccc(C#Cc2ccc(-c3ccn[nH]3)cc2)c1 [Compound 15] | > 40 µM | 8.2 ± 7.8 µM | Worm motility IC50 ± SD, H. contortus xL3s (H. contortus xL3s; [5]): loss of activity; fold increased activity compared to UMW-9729, C. elegans (C. elegans young adults; ratio of motility IC50 to parent UMW-9729): ~2 fold; reduction of worm motility, adult females of H. contortus [1, 6]: 23% |
| C(#Cc1ccc(-c2ccn[nH]2)cc1)c1ccncc1 [Compound 22] | > 40 µM | > 40 µM | Worm motility IC50 ± SD, H. contortus xL3s (H. contortus xL3s; [5]): inactive |
| c1ccc(CCc2ccc(-c3ccn[nH]3)cc2)cc1 [Compound 28] | 16 ± 4.9 µM | > 40 µM | – |
| FC(F)(F)c1cccc(C#Cc2ccc(-c3ccn[nH]3)cc2)c1 [Compound 12] | 8.2 ± 1.9 µM | 12 ± 7 µM | reduction of worm motility, adult females of H. contortus [1, 6]: 29% |
| Cn1nccc1-c1ccc(C#Cc2ccccc2)cc1 [Compound 25] | – | – | fold increased activity compared to UMW-9729, H. contortus larvae (H. contortus xL3s): 3 fold; Maximum motility inhibition (MMI), H. contortus xL3s (H. contortus xL3s; xL3s, 90 h incubation (table title)): 73%; IC50 (H. contortus xL3s; [5]): 1.9 ± 0.14 µM; Worm motility IC50 ± SD, C. elegans young adults (C. elegans young adults; [4]): inactive; IC50 (C. elegans young adults; [4]): > 40 µM; reduction of worm motility, adult females of H. contortus ([1]; 3 h time point): did not display a reduction in motility; reduction of worm motility, adult females of H. contortus ([1]; 6 h time point): did not display a reduction in motility; reduction of worm motility, adult females of H. contortus ([1]; 12 h time point): did not display a reduction in motility |
| N#Cc1ccc(C#Cc2ccc(-c3ccn[nH]3)cc2)cc1 [Compound 21] | 6.7 ± 4.2 µM | > 40 µM | – |
| COc1ccccc1C#Cc1ccc(-c2ccn[nH]2)cc1 [Compound 6] | > 40 µM | > 40 µM | – |
| Fc1cccc(C#Cc2ccc(-c3ccn[nH]3)cc2)c1 [Compound 14] | 5.2 ± 0.9 µM | 9 µM | IC50 (C. elegans young adults; [4]): 8 ± 1.8 µM; reduction of worm motility, adult females of H. contortus [1, 6]: 29% |
| FC(F)(F)c1ccccc1C#Cc1ccc(-c2ccn[nH]2)cc1 [Compound 7] | > 40 µM | > 40 µM | – |
| C(#Cc1cccnc1)c1ccc(-c2ccn[nH]2)cc1 [Compound 16] | 6.8 ± 0.1 µM | > 40 µM | Worm motility IC50 ± SD, H. contortus xL3s (H. contortus xL3s; [5]): equipotent; Worm motility IC50 ± SD, C. elegans young adults (C. elegans young adults; [4]): loss of activity; reduction of worm motility, adult females of H. contortus [1, 6]: 15% |
| C(#Cc1cccc(-c2ccn[nH]2)c1)c1ccccc1 [Compound 26, 5-(3-(phenylethynyl)phenyl)-1H-pyrazole] | > 40 µM | > 40 µM | Worm motility IC50 ± SD, H. contortus xL3s (H. contortus xL3s; [5]): complete loss of activity |
| Fc1ccccc1C#Cc1ccc(-c2ccn[nH]2)cc1 [Compound 8] | 12 µM | 3.7 ± 1.9 µM | IC50 (H. contortus xL3s; [5]): 13 ± 4.5 µM |
| FC(F)(F)Oc1cccc(C#Cc2ccc(-c3ccn[nH]3)cc2)c1 [Compound 13] | > 40 µM | > 40 µM | – |
| C(#Cc1ccc(-c2ccn[nH]2)cn1)c1ccccc1 [Compound 24] | 24 ± 8.5 µM | > 40 µM | Worm motility IC50 ± SD, C. elegans young adults (C. elegans young adults; [4]): loss in activity |
| CO/N=C1\C[C@]2(C[C@@H]3C[C@@H](C/C=C(\C)C[C@@H](C)/C=C/C=C4\CO[C@@H]5[C@H](O)C(C)=C[C@@H](C(=O)O3)[C@]45O)O2)O[C@H](/C(C)=C/C(C)C)[C@H]1C [Moxidectin, moxidectin, reference compound] | 18 ± 9.1 µM | 0.003 µM | – |
| Cc1nc(-c2ccc(C#Cc3ccccc3)cc2)no1 [Compound 32] | 5.1 ± 0.5 µM | 18 ± 11 µM | – |
| Cc1ccc(C#Cc2ccc(-c3ccn[nH]3)cc2)cc1 [Compound 18] | 2 ± 0.1 µM | > 40 µM | fold increased activity compared to UMW-9729, H. contortus larvae (H. contortus xL3s): 3 fold; Worm motility IC50 ± SD, C. elegans young adults (C. elegans young adults; [4]): inactive; reduction of worm motility, adult females of H. contortus [1, 6]: 15% |
| C[Si](C)(C)C#Cc1ccc(-c2ccn[nH]2)cc1 [Compound 23] | – | – | IC50 (H. contortus xL3s; Haemonchus contortus, 90 h): > 40 µM; Worm motility IC50 ± SD, H. contortus xL3s (H. contortus xL3s; [5]): complete loss of activity; IC50 (C. elegans young adults; Caenorhabditis elegans, 40 h): > 40 µM |
| Clc1ccc(C#Cc2ccc(-c3ccn[nH]3)cc2)cc1 [Compound 20] | 3.7 ± 1.1 µM | > 40 µM | – |
| Oc1cccc(C#Cc2ccc(-c3ccn[nH]3)cc2)c1 [Compound 17] | 29 ± 12 µM | 25 ± 7 µM | – |
| COc1ccc(C#Cc2ccc(-c3ccn[nH]3)cc2)cc1 [Compound 19] | > 40 µM | > 40 µM | Worm motility IC50 ± SD, H. contortus xL3s (H. contortus xL3s; [5]): inactive |
| C(#Cc1ccccn1)c1ccc(-c2ccn[nH]2)cc1 [Compound 10] | 8.7 ± 2.5 µM | > 40 µM | Worm motility IC50 ± SD, C. elegans young adults (C. elegans young adults; [4]): loss of compound activity |
| Clc1ccccc1C#Cc1ccc(-c2ccn[nH]2)cc1 [Compound 9] | 4.8 ± 0.7 µM | > 40 µM | – |
| C#Cc1ccc(-c2ccn[nH]2)cc1 [Compound 27, 5-(4-ethynylphenyl)-1H-pyrazole] | > 40 µM | > 40 µM | Worm motility IC50 ± SD, H. contortus xL3s (H. contortus xL3s; [5]): complete loss of activity |
